Experimental data from paper PMC3805977 (Scientific Reports, 2013).

Test system: HIV-1
Assay: HIV-1 inhibition assay, isolates not separated
Assay type: cell-based
Details: across HIV-1 clades; effect augmented with streptavidin conjugation

## SSCSVRSSCRLYYSC
  HIV-1 inhibitory activity, in words: did not show any HIV-1 inhibition
